According to US4393228A, “Epoxysuccinic acid derivatives” (Taisho Pharmaceutical Co., Ltd., priority 1977, dated 1983):

Target: T1, papain (Carica papaya, UniProt P00784)
T1 construct: purchased Sigma Chem. Co
T1 sequence (P00784 134-345): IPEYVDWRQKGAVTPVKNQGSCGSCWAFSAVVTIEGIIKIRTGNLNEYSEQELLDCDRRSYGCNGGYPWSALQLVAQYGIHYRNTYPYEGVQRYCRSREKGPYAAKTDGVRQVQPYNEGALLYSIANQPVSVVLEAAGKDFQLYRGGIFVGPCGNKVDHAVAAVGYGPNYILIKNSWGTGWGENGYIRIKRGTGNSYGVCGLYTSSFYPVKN
Test: Papain inhibitory activity (milk casein digestion)
Assay type: biochemical
Details: papain 80 μg/ml 0.5 ml, cysteine, pH 6.8, 1% milk casein, 40° C., 10 minutes
Description: Papain inhibitory activity of the compounds of this invention was assayed as follows: To 0.5 ml of a solution of papain (80 μg/ml, Sigma Chem. Co., 2x cry.), were added 0.25 ml of 40 mM cysteine dissolved in 20 mM disodium ethylenediamine tetraacetic acid solution adjusted pH to 6.8 with sodium hydroxide and 0.25 ml of 33 mM phosphate buffer (pH 6.8) with or without inhibitor. After incubation at 40° C. for 15 minutes, the resulting mixture was added to 5 ml of 1% milk casein solution in the same buffer as described above, and further incubated at 40° C. for 10 minutes. Then the mixture was mixed with 5 ml of 0.44 M trichloroacetic acid solution and followed by filtration with a sheet of Toyo filter paper No. 4. The extinction of the filtrate was read at 280 nm. The percent inhibition was calculated from the formula, 100 x (B-A)/B; wherein B stands for the absorbance without inhibitor and A for the absorbance with inhibitor. The compound Nos. in Table 1 are as defined in Examples as described hereinafter.

Row | SMILES | ID50 (amount of inhibitor for 50% inhibition)
1 | O=C(OCc1ccc(I)cc1Br)[C@H]1O[C@@H]1C(=O)OCc1ccc(I)cc1Br (relative stereo) [EP-119, di-2'-bromo-4'-iodobenzyl epoxysuccinate] | 3.00 γ
2 | O=C(O)[C@H]1O[C@@H]1C(=O)OCc1ccc(I)cc1Br (relative stereo) [EP-120, 2'-bromo-4'-iodobenzyl potassium epoxysuccinate] | 0.40 γ
3 | O=C(O)[C@H]1O[C@@H]1C(=O)OCc1cccc(F)c1 (relative stereo) [EP-122, m-fluorobenzyl potassium epoxysuccinate] | 0.10 γ
4 | O=C(OCc1ccccc1F)[C@H]1O[C@@H]1C(=O)OCc1ccccc1F (relative stereo) [EP-123, di-o-fluorobenzyl epoxysuccinate] | 0.30 γ
5 | O=C(O)[C@H]1O[C@@H]1C(=O)OCc1ccccc1F (relative stereo) [EP-124, o-fluorobenzyl potassium epoxysuccinate] | 0.10 γ
6 | O=C(OCc1ccc(Br)c(Cl)c1)[C@H]1O[C@@H]1C(=O)OCc1ccc(Br)c(Cl)c1 (relative stereo) [EP-125, di-3'-chloro-4'-bromobenzyl epoxysuccinate] | 2.90 γ
7 | O=C(O)[C@H]1O[C@@H]1C(=O)OCc1ccc(Br)c(Cl)c1 (relative stereo) [EP-126, 3'-chloro-4'-bromobenzyl potassium epoxysuccinate] | 0.12 γ
8 | O=C(OCc1cc(Cl)ccc1Cl)[C@H]1O[C@@H]1C(=O)OCc1cc(Cl)ccc1Cl (relative stereo) [EP-127, di-2',5'-dichlorobenzyl epoxysuccinate] | 2.00 γ
9 | O=C(O)[C@H]1O[C@@H]1C(=O)OCc1cc(Cl)ccc1Cl (relative stereo) [EP-128, 2',5'-dichlorobenzyl potassium epoxysuccinate] | 0.11 γ
10 | O=C(OCCc1ccccc1)[C@H]1O[C@@H]1C(=O)OCCc1ccccc1 (relative stereo) [EP-129, di-2'-phenylethyl epoxysuccinate] | 0.78 γ
11 | O=C(O)[C@H]1O[C@@H]1C(=O)OCCc1ccccc1 (relative stereo) [EP-130, 2'-phenylethyl potassium epoxysuccinate] | 0.10 γ
12 | O=C(O)[C@H]1O[C@@H]1C(=O)OCCCc1ccccc1 (relative stereo) [EP-132, 3'-phenylpropyl potassium epoxysuccinate] | 0.17 γ
13 | O=C(OCC=Cc1ccccc1)[C@H]1O[C@@H]1C(=O)OCC=Cc1ccccc1 (relative stereo) [EP-133, di-3'-phenyl-2'-propenyl epoxysuccinate] | 2.81 γ
14 | O=C(O)[C@H]1O[C@@H]1C(=O)OCC=Cc1ccccc1 (relative stereo) [EP-134, 3'-phenyl-2'-propenyl potassium epoxysuccinate] | 0.71 γ
15 | COC(=O)[C@H]1O[C@@H]1C(=O)O (relative stereo) [EP-135, methyl hydrogen epoxysuccinate] | 12.20 γ
16 | O=C(O)[C@H]1O[C@@H]1C(=O)Oc1ccccc1 (relative stereo) [EP-136, phenyl hydrogen epoxysuccinate] | 2.72 γ
17 | CCCOC(=O)[C@H]1O[C@@H]1C(=O)O (relative stereo) [EP-138, n-propyl potassium epoxysuccinate] | 0.82 γ
18 | CC(C)OC(=O)[C@H]1O[C@@H]1C(=O)O (relative stereo) [EP-139, i-propyl potassium epoxysuccinate] | 0.78 γ
19 | C=CCOC(=O)[C@H]1O[C@@H]1C(=O)O (relative stereo) [EP-140, allyl potassium epoxysuccinate] | 0.92 γ
20 | C#CCOC(=O)[C@H]1O[C@@H]1C(=O)O (relative stereo) [EP-141, propargyl potassium epoxysuccinate] | 1.45 γ
21 | CCCCOC(=O)[C@H]1O[C@@H]1C(=O)O (relative stereo) [EP-142, n-butyl potassium epoxysuccinate] | 0.29 γ
22 | CCCCCCCCCCCCOC(=O)[C@H]1O[C@@H]1C(=O)O (relative stereo) [EP-145, n-dodecyl potassium epoxysuccinate] | 0.14 γ

Row | SMILES | ID50 (amount of inhibitor for 50% inhibition)
23 | CCCOC(=O)[C@H]1O[C@@H]1C(=O)NCC(=O)OCc1ccccc1 (relative stereo) [EP-153, N-(3-n-propyloxycarbonyloxirane-2-carbonyl)-glycine benzyl ester] | 17.90 γ
24 | CCOC(=O)[C@H]1O[C@@H]1C(=O)NCC(=O)OCc1ccccc1 (relative stereo) [EP-154, N-(3-ethoxycarbonyloxirane-2-carbonyl)-glycine benzyl ester] | 43.90 γ
25 | CCOC(=O)[C@H]1O[C@@H]1C(=O)NCCC(=O)OCc1ccccc1 (relative stereo) [EP-157, N-(3-ethoxycarbonyloxirane-2-carbonyl)-β-alanine benzyl ester] | 71.50 γ
26 | CCOC(=O)CCCNC(=O)[C@@H]1O[C@H]1C(=O)OCc1ccc(Cl)cc1 (relative stereo) [EP-189, N-(3-p-chlorobenzyloxycarbonyloxirane-2-carbonyl)-γ-aminobutylic acid ethyl ester] | 10.58 γ
27 | O=C(CNC(=O)[C@@H]1O[C@H]1C(=O)OCCC1CCCCC1)OCc1ccccc1 (relative stereo) [EP-207, N-[3-(2'-cyclohexylethoxy)-carbonyloxirane-2-carbonyl]-glycine benzyl ester] | 6.52 γ
28 | O=C(CCNC(=O)[C@@H]1O[C@H]1C(=O)OCCCCC1CCCCC1)OCc1ccccc1 (relative stereo) [EP-208, N-[3-(4'-cyclohexylbutoxy)-carbonyloxirane-2-carbonyl]-β-alanine benzyl ester] | 13.12 γ
29 | CCOC(=O)CNC(=O)[C@@H]1O[C@H]1C(=O)OCc1ccc2c(Br)cccc2c1 (relative stereo) [EP-220, N-[3-(5'-bromo-2-naphthylmethoxy)-carbonyloxirane-2-carbonyl]-glycine ethyl ester] | 9.86 γ
30 | O=C(OC1CCCC(Br)C1)C1OC1C(=O)OC1CCCC(Br)C1 (stereo not drawn) [EP-9, di-3'-cis-bromocyclohexyl epoxysuccinate] | 2.20 γ
31 | O=C(O)C1OC1C(=O)OC1CCCC(Br)C1 (stereo not drawn) [EP-10, 3'-cis-bromocyclohexyl potassium epoxysuccinate] | 0.06 γ
32 | O=C(OC1CC(Cl)CCC1Br)C1OC1C(=O)OC1CC(Cl)CCC1Br (stereo not drawn) [EP-11, di-2'-cis-bromo-5'-trans-chlorocyclohexyl epoxysuccinate] | 2.50 γ
33 | O=C(O)C1OC1C(=O)OC1CC(Cl)CCC1Br (stereo not drawn) [EP-12, 2'-cis-bromo-5'-trans-chlorocyclohexyl potassium epoxysuccinate] | 0.07 γ
34 | CC1CCCC(C)C1OC(=O)C1OC1C(=O)OC1C(C)CCCC1C (stereo not drawn) [EP-13, di-2',6'-trans-dimethylcyclohexyl epoxysuccinate] | 2.50 γ
35 | CC1CCCC(C)C1OC(=O)C1OC1C(=O)O (stereo not drawn) [EP-14, 2',6'-trans-dimethylcyclohexyl potassium epoxysuccinate] | 0.10 γ
36 | O=C(OC1CCC(Br)C(Cl)C1)C1OC1C(=O)OC1CCC(Br)C(Cl)C1 (stereo not drawn) [EP-21, di-3'-cis-chloro-trans-4'-bromocyclohexyl epoxysuccinate] | 2.46 γ
37 | O=C(O)C1OC1C(=O)OC1CCC(Br)C(Cl)C1 (stereo not drawn) [EP-22, 3'-cis-chloro-4'-trans-bromocyclohexyl potassium epoxysuccinate] | 0.12 γ
38 | O=C(OC1CC(Cl)CC(Cl)C1)C1OC1C(=O)OC1CC(Cl)CC(Cl)C1 (stereo not drawn) [EP-23, di-3',5'-trans-dichlorocyclohexyl epoxysuccinate] | 2.45 γ
39 | O=C(O)C1OC1C(=O)OC1CC(Cl)CC(Cl)C1 (stereo not drawn) [EP-24, 3',5'-trans-dichlorocyclohexyl potassium epoxysuccinate] | 0.09 γ
40 | O=C(OC1CCC(Cl)C1)C1OC1C(=O)OC1CCC(Cl)C1 (stereo not drawn) [EP-29, di-3'-cis-chlorocyclopentyl epoxysuccinate] | 3.12 γ
41 | O=C(O)C1OC1C(=O)OC1CCC(Cl)C1 (stereo not drawn) [EP-30, 3'-cis-chlorocyclopentyl potassium epoxysuccinate] | 0.07 γ
42 | CC1CCC(OC(=O)C2OC2C(=O)OC2CCC(C)C2)C1 (stereo not drawn) [EP-31, di-3'-trans-methylcyclopentyl epoxysuccinate] | 3.25 γ
43 | CC1CCC(OC(=O)C2OC2C(=O)O)C1 (stereo not drawn) [EP-32, 3'-trans-methylcyclopentyl potassium epoxysuccinate] | 0.09 γ
